pEC50: −log10 of the molar value.
Legend:
[1] = target: estrogen receptor alpha (ESR1) in MCF7 breast cancer cells (Homo sapiens (Human), UniProt P03372); experiment: Breast Cancer Cell ERa High Content Fluorescence Imaging Degradation Assay (Example 901); type: cell-based; details: 4 hours, plateau of maximal effect, 0% = DMSO, 100% change = 5 nM Fulvestrant
Experimental: Where more than one name is associated with a Formula I compound or intermediate, the chemical structure shall define the compound. […] Cell plates were incubated at 37° C., for 4 hours. Fixation and permeabilization were carried out using a Biotek EL406 plate washer and dispenser as follows. […] Well contents were aspirated and washed 3 times with 100 μL/well of PBS. […] Samples were incubated for 2 hours at room temperature. […] Samples were incubated for 2 hours at room temperature. […] Quantitative fluorescence imaging of ESR1 was carried out using a Cellomics Arrayscan V (Thermo). […] Channel 1 (DNA stain) was used to define the nuclear region (Circ). […] The “Robust Fit” method was used to define the inflexion point of curve (EC50) and the plateau of the maximal effect (Sinf).

ER-alpha MCF7 = ER-alpha MCF7 HCS EC50; stated as measured by in vitro cell proliferation assays of Examples 902 and 903; type: cell-based; details: Homo sapiens, Table 1
Method in brief: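 MCF7 cells seeded 1000-2000 cells/well for 16 h, then treated with nine-point 1:2 DMSO dilution series in quadruplicate at 37 °C, 5% CO2 for 4 days. Viable cells quantified by CellTiter-Glo ATP luminescence; EC50 calculated. Controls: fulvestrant at final 100 nM, DMSO 0.2% v/v.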

estrogen receptor alpha (ESR1) in MCF7 breast cancer cells, sequence (P03372 whole entry): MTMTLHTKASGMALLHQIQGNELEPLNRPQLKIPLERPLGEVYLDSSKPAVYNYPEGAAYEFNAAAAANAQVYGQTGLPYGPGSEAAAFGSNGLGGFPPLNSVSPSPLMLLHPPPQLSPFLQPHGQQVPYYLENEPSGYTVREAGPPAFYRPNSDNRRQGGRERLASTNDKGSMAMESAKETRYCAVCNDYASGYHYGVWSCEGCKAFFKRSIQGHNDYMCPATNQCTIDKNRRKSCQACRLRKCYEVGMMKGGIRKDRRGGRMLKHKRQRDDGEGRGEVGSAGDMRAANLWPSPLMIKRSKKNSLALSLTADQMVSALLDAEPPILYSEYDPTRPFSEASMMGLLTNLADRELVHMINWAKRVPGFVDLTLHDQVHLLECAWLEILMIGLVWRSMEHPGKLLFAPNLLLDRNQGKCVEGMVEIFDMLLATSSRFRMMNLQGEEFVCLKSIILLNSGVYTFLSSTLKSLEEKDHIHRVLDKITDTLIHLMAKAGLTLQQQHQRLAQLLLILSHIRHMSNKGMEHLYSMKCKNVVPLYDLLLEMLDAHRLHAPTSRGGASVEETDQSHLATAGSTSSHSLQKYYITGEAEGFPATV

Structure (SMILES)	ER-alpha MCF7 HCS Sinf (%) [1] [%]	pEC50 (ER-alpha MCF7; MCF7, MCF7 cells)	pEC50 (ER-alpha MCF7; MCF7 cells)
C[C@@H](CO)CN1[C@H](c2c(F)cc(OCCN3CC(CF)C3)cc2F)c2[nH]c3ccccc3c2C[C@H]1C [Example 123, (R)-3-((1R,3R)-1-(2,6-difluoro-4-(2-(3-(fluoromethyl)azetidin-1-yl)ethoxy)phenyl)-3-methyl-3,4-dihydro-1H-pyrido[3,4-b]indol-2(9H)-yl)-2-methylpropan-1-ol]	−96.1	8.98	
CC(C)C(=O)N1[C@H](c2c(F)cc(OCCN3CC(CF)C3)cc2F)c2[nH]c3ccccc3c2C[C@H]1C [Example 103, 1-((1R,3R)-1-(2,6-difluoro-4-(2-(3-(fluoromethyl)azetidin-1-yl)ethoxy)phenyl)-3-methyl-3,4-dihydro-1H-pyrido[3,4-b]indol-2(9H)-yl)-2-methylpropan-1-one]	−91.8		9.96
C[C@@H]1Cc2c([nH]c3ccccc23)[C@@H](c2ccc(OCCN3CC(CF)C3)cc2F)N1CC(C)(C)F [Example 120, (1R,3R)-2-(2-fluoro-2-methylpropyl)-1-(2-fluoro-4-(2-(3-(fluoromethyl)azetidin-1-yl)ethoxy)phenyl)-3-methyl-2,3,4,9-tetrahydro-1H-pyrido[3,4-b]indole]	−96.3	10.25	
C[C@@H]1Cc2c([nH]c3ccccc23)[C@@H](c2c(F)cc(OCCN3CC(CF)C3)cc2F)N1C(=O)C(C)(C)O [Example 122, 1-((1R,3R)-1-(2,6-difluoro-4-(2-(3-(fluoromethyl)azetidin-1-yl)ethoxy)phenyl)-3-methyl-3,4-dihydro-1H-pyrido[3,4-b]indol-2(9H)-yl)-2-hydroxy-2-methylpropan-1-one]	−97.8	8.85	
C[C@@H]1Cc2c([nH]c3ccccc23)[C@@H](c2c(F)cc(OCCN3CC(CF)C3)cc2F)N1C(=O)C1CC(O)C1 (stereo partly drawn) [Example 124, ((1R,3R)-1-(2,6-difluoro-4-(2-(3-(fluoromethyl)azetidin-1-yl)ethoxy)phenyl)-3-methyl-3,4-dihydro-1H-pyrido[3,4-b]indol-2(9H)-yl)((1s,3S)-3-hydroxycyclobutyl) methanone]	−75	6.87	
C[C@@H]1Cc2c([nH]c3ccccc23)[C@@H](c2c(F)cc(OCCN3CC(CF)C3)cc2F)N1C(=O)C(C)(C)F [Example 104, 1-((1R,3R)-1-(2,6-difluoro-4-(2-(3-(fluoromethyl)azetidin-1-yl)ethoxy)phenyl)-3-methyl-3,4-dihydro-1H-pyrido[3,4-b]indol-2(9H)-yl)-2-fluoro-2-methylpropan-1-one]	−95.4		
CC(=O)N1[C@H](c2c(F)cc(OCCN3CC(CF)C3)cc2F)c2[nH]c3ccccc3c2C[C@H]1C [Example 121, 1-((1R,3R)-1-(2,6-difluoro-4-(2-(3-(fluoromethyl)azetidin-1-yl)ethoxy)phenyl)-3-methyl-3,4-dihydro-1H-pyrido[3,4-b]indol-2(9H)-yl)ethanone]	−91		
C[C@@H]1Cc2c([nH]c3ccccc23)[C@@H](c2c(F)cc(OCCN3CC(CF)C3)cc2F)N1S(C)(=O)=O [Example 126, (1R,3R)-1-(2,6-difluoro-4-(2-(3-(fluoromethyl)azetidin-1-yl)ethoxy)phenyl)-3-methyl-2-(methylsulfonyl)-2,3,4,9-tetrahydro-1H-pyrido[3,4-b]indole]	−94.4		
CC(C)C(=O)N1C(c2c(F)cc(OCCN3CC(CF)C3)cc2F)c2[nH]c3ccccc3c2CC1(C)C (stereo not drawn) [Example 125, 1-(1-(2,6-difluoro-4-(2-(3-(fluoromethyl)azetidin-1-yl)ethoxy)phenyl)-3,3-dimethyl-3,4-dihydro-1H-pyrido[3,4-b]indol-2(9H)-yl)-2-methylpropan-1-one]	−90	7.13	
C[C@@H]1Cc2c([nH]c3ccccc23)[C@@H](c2c(F)cc(OCCN3CC(CF)C3)cc2F)N1CC1COC1 [Example 115, (1R,3R)-1-(2,6-difluoro-4-(2-(3-(fluoromethyl)azetidin-1-yl)ethoxy)phenyl)-3-methyl-2-(oxetan-3-ylmethyl)-2,3,4,9-tetrahydro-1H-pyrido[3,4-b]indole]	−95.5	7.64	
CCCN1CC(Oc2cc(F)c([C@@H]3c4[nH]c5ccccc5c4C[C@@H](C)N3CC(C)(C)F)c(F)c2)C1 [Example 107, (1R,3R)-1-(2,6-difluoro-4-((1-propylazetidin-3-yl)oxy)phenyl)-2-(2-fluoro-2-methylpropyl)-3-methyl-2,3,4,9-tetrahydro-1H-pyrido[3,4-b]indole]	−97.6		
C[C@@H]1Cc2c([nH]c3ccccc23)[C@@H](c2c(F)cc(OC[C@H](C)N3CC[C@@H](CF)C3)cc2F)N1CC(C)(C)F [Example 108, (1R,3R)-1-(2,6-difluoro-4-((S)-2-((R)-3-(fluoromethyl)pyrrolidin-1-yl)propoxy)phenyl)-2-(2-fluoro-2-methylpropyl)-3-methyl-2,3,4,9-tetrahydro-1H-pyrido[3,4-b]indole]	−79.3		
C[C@@H]1Cc2c([nH]c3ccccc23)[C@@H](c2c(F)cc(OCCN3CC(CF)C3)cc2F)N1CC1CCC1 [Example 113, (1R,3R)-2-(cyclobutylmethyl)-1-(2,6-difluoro-4-(2-(3-(fluoromethyl)azetidin-1-yl)ethoxy)phenyl)-3-methyl-2,3,4,9-tetrahydro-1H-pyrido[3,4-b]indole]	−94.8	8.21	
C[C@@H]1Cc2c([nH]c3ccccc23)[C@@H](c2c(F)cc(OCCN3CC(CF)C3)cc2F)N1C1COC1 [Example 116, (1R,3R)-1-(2,6-difluoro-4-(2-(3-(fluoromethyl)azetidin-1-yl)ethoxy)phenyl)-3-methyl-2-(oxetan-3-yl)-2,3,4,9-tetrahydro-1H-pyrido[3,4-b]indole]	−85	7.38	
C[C@@H]1Cc2c([nH]c3ccccc23)[C@@H](c2c(F)cc(OCCN3CCCC3)cc2F)N1CC(C)(C)F [Example 117, (1R,3R)-1-(2,6-difluoro-4-(2-(pyrrolidin-1-yl)ethoxy)phenyl)-2-(2-fluoro-2-methylpropyl)-3-methyl-2,3,4,9-tetrahydro-1H-pyrido[3,4-b]indole]	−71.7		
